The first data set is described as follows: Solubility of the dyes in organic solvent, determined after one week of the solution in contact with the solid dye with occasional shaking. Format: physicochemical. As to conditions: CHCl₃, 20 °C; 10080 min. The text has this: Die Perylenfarbstoffe werden aus technischen Perylen-3,4:9,10-tetracarbonsäurebisanhydrid (2,55 mmol), dem entsprechenden primären Amin oder dem Aminhydrochlorid (6 mmol) und Imidazol (5 g) dargestellt und werden entsprechend der Literatur gereinigt (siehe z.B. Chem. Ber. 118 4641 (1985) und Chem. Ber. 121 225 (1988)). Die Angaben beziehen sich auf die Darstellung von hochreine Farbstoffen. Die Perylenfarbstoffe der allgemeinen Formel I mit R¹ = R² = Hexyl, Dodecyl, Octadecyl, Cycloalkyl bis zu Cyclopentadecyl und sec-Alkyl bis 1-Hexylheptyl sind in Chem. Ber. 121 225 (1988) beschriebn. Die Löslichkeiten der Farbstoffe sind nach einer Woche der Lösung mit dem festen Farbstoff bei gelegentlichem Umschütteln bestimmt worden.
In the case of `CCCCCN1C(=O)c2ccc3c4ccc5c6c(ccc(c7ccc(c2c37)C1=O)c64)C(=O)N(CCCCC)C5=O` [N,N'-Di(1-pentyl)perylen-3,4:9,10-bis(dicarboximid)], the “Löslichkeit (CHCl₃/20^oC)” value amounted to 47 mg/100 ml.

Consider `CCCN1C(=O)c2ccc3c4ccc5c6c(ccc(c7ccc(c2c37)C1=O)c64)C(=O)N(CCC)C5=O` [N,N'-Di(1-Propyl)perylen-3,4:9,10-bis(dicarboximid)], for which the “Löslichkeit (CHCl₃/20^oC)” value is 5,3 mg/100 ml.

In the case of `CCCCN1C(=O)c2ccc3c4ccc5c6c(ccc(c7ccc(c2c37)C1=O)c64)C(=O)N(CCCC)C5=O` [N,N'-Di(1-butyl)perylen-3,4:9,10-bis(dicarboximid)], the “Löslichkeit (CHCl₃/20^oC)” value is recorded as 8,9 mg/100 ml.

On to `CCCCCCCCCN1C(=O)c2ccc3c4ccc5c6c(ccc(c7ccc(c2c37)C1=O)c64)C(=O)N(CCCCCCCCC)C5=O` [N,N'-Di(n-nonyl)perylen-3,4:9,10-bis(dicarboximid)], for which the “Löslichkeit (CHCl₃/20^oC)” value was 11 mg/100 ml.

The data set is the same for the next values; noted with them: CHCl₃, temperature not given; 10080 min.
For the molecule `O=C1c2ccc3c4ccc5c6c(ccc(c7ccc(c2c37)C(=O)N1C1CCCCCCCCCCCCCCC1)c64)C(=O)N(C1CCCCCCCCCCCCCCC1)C5=O` [N,N'-Dicyclohexadecylperylen-3,4:9,10-bis(dicarboximid)], the “Löslichkeit (CHCl₃)” value is on record as 0.56 g/100ml.

With `CCCCCCCCCCCCCCCCN1C(=O)c2ccc3c4ccc5c6c(ccc(c7ccc(c2c37)C1=O)c64)C(=O)N(CCCCCCCCCCCCCCCC)C5=O` [N,N'-Di(n-hexadecyl)perylen-3,4:9,10-bis(dicarboximid)], the “Löslichkeit (CHCl₃)” value came out at 6.0 mg/100 ml.

For the molecule `CCCCCCCCCCCCCCN1C(=O)c2ccc3c4ccc5c6c(ccc(c7ccc(c2c37)C1=O)c64)C(=O)N(CCCCCCCCCCCCCC)C5=O` [N,N'-Di(n-tetradecyl)perylen-3,4:9,10-bis(dicarboximid)], the “Löslichkeit (CHCl₃)” value was 5.4 mg/100 ml.

Turning to `CCCCCCCCCCCCCCCCCCN1C(=O)c2ccc3c4ccc5c6c(ccc(c7ccc(c2c37)C1=O)c64)C(=O)N(CCCCCCCCCCCCCCCCCC)C5=O` [N,N'-Di(n-octadecyl)perylen-3,4:9,10-bis(dicarboximid)], the “Löslichkeit (CHCl₃)” value is listed as 1,8 mg/100 ml.

Still in this data set, the particulars now being: n-Heptan, 20 °C; 10080 min.
`CCCCCCCC(CCCCCCC)N1C(=O)c2ccc3c4ccc5c6c(ccc(c7ccc(c2c37)C1=O)c64)C(=O)N(C(CCCCCCC)CCCCCCC)C5=O` [N,N'-Di(1-heptyloctyl)perylen-3,4:9,10-bis(dicarboximid)]: the “Löslichkeit (n-Heptan/20^oC)” value is 0.59 g/100ml.

As to `CCCCCCCCC(CCCCCCCC)N1C(=O)c2ccc3c4ccc5c6c(ccc(c7ccc(c2c37)C1=O)c64)C(=O)N(C(CCCCCCCC)CCCCCCCC)C5=O` [N,N'-Di(1-octylnonyl)perylen-3,4:9,10-bis(dicarboximid)], the “Löslichkeit (n-Heptan/20^oC)” value is recorded as 0.30 g/100ml.

The same data set, now with this note: n-Heptan, temperature not given; 10080 min.
On to `CCCCCCCCCCCCCCCCCCC(CCCCCCCCCCCCCCCCCC)N1C(=O)c2ccc3c4ccc5c6c(ccc(c7ccc(c2c37)C1=O)c64)C(=O)N(C(CCCCCCCCCCCCCCCCCC)CCCCCCCCCCCCCCCCCC)C5=O` [N,N'-Di(1-octadecylnonadecyl)perylen-3,4:9,10-bis(dicarboximid)], for which the “Löslichkeit (n-Heptan)” value was 26 mg/100 ml.

Turning to `CCCCCCCCCCCCCCCCC(CCCCCCCCCCCCCCCC)N1C(=O)c2ccc3c4ccc5c6c(ccc(c7ccc(c2c37)C1=O)c64)C(=O)N(C(CCCCCCCCCCCCCCCC)CCCCCCCCCCCCCCCC)C5=O` [N,N'-Di(1-hexadecylheptadecyl)perylen-3,4:9,10-bis(dicarboximid)], the “Löslichkeit (n-Heptan)” value was determined as 0.13 g/100 ml.

Turning to `CCCCCCCCCCC(CCCCCCCCCC)N1C(=O)c2ccc3c4ccc5c6c(ccc(c7ccc(c2c37)C1=O)c64)C(=O)N(C(CCCCCCCCCC)CCCCCCCCCC)C5=O` [N,N'-Di(1-decylundecyl)Perylen-3,4:9,10-bis(dicarboximid)], the “Löslichkeit (n-Heptan)” value was determined as 4.8 g/100 ml.

As to `CCCCCCCCCCCCC(CCCCCCCCCCCC)N1C(=O)c2ccc3c4ccc5c6c(ccc(c7ccc(c2c37)C1=O)c64)C(=O)N(C(CCCCCCCCCCCC)CCCCCCCCCCCC)C5=O` [N,N'-Di(1-dodecyltridecyl)perylen-3,4:9,10-bis(dicarboximid)], the “Löslichkeit (n-Heptan)” value was determined as 67 mg/100 ml.

For `CCCCCCCCCC(CCCCCCCCC)N1C(=O)c2ccc3c4ccc5c6c(ccc(c7ccc(c2c37)C1=O)c64)C(=O)N(C(CCCCCCCCC)CCCCCCCCC)C5=O` [N,N'-Di(1-nonyldecyl)perylen-3,4:9,10-bis(dicarboximid)], the “Löslichkeit (n-Heptan)” value is given as 35 g/100 ml.

For the origin of these results see patent publication EP0446748A2, “Use of perylenedyes for the preparation of write, print or copying materials” (priority 1990, dated 1991).
